# Measurements published in patent US11083725B2 (priority 2014, dated 2021).
# System: NHBE cells
# Assay: Biolog metabolic array: substrate use by NHBE cells with or without CA09 infection
# Type: cell-based, human
# Settings: for Substrate use, 590 nm absorbance normalized to zero hour, 1 hr: Biolog PMM2, 1 hr; for Substrate use, 590 nm absorbance normalized to zero hour, 5 hr: Biolog PMM2, 5 hr; for Substrate use, 590 nm absorbance normalized to zero hour, 7 hr: Biolog PMM2, 7 hr; for Substrate use, 590 nm absorbance normalized to zero hour, 0 hr: Biolog PMM2, 0 hr
# [1] = Control (uninfected) NHBE cells
# [2] = Virus (CA09, MOI 1) infected NHBE cells
# [3] = Virus (CA09-infected, MOI 1) NHBE cells
# [4] = Virus (CA09-infected NHBE cells, MOI 1)
# [5] = Virus: CA09-infected NHBE cells, MOI 1, Biolog PMM2
smiles,measurement,setting,value
O=C[C@H](O)[C@@H](O)[C@H](O)[C@H](O)C(=O)O [D-Glucuronic Acid],"590 nm absorbance normalized to zero hour (substrate use), 1 hr",[1],1.13
same,"590 nm absorbance normalized to zero hour (substrate use), 2 hr",[1],1.37
same,"590 nm absorbance normalized to zero hour (substrate use), 3 hr",[1],1.29
same,"590 nm absorbance normalized to zero hour (substrate use), 4 hr",[1],1.42
same,"590 nm absorbance normalized to zero hour (substrate use), 6 hr",[1],0.86
same,"590 nm absorbance normalized to zero hour (substrate use), 8 hr",[1],1.83
same,"590 nm absorbance normalized to zero hour (substrate use), 9 hr",[1],1.90
same,"590 nm absorbance normalized to zero hour (substrate use), 10 hr",[1],2.04
same,"590 nm absorbance normalized to zero hour (substrate use), 11 hr",[1],2.34
same,"Substrate use, 590 nm absorbance normalized to zero hour, 1 hr",[1],1.13
same,"Substrate use, 590 nm absorbance normalized to zero hour, 5 hr",[1],1.57
same,"Substrate use, 590 nm absorbance normalized to zero hour, 7 hr",[1],1.71
same,"Substrate use, 590 nm absorbance normalized to zero hour, 1 hr",[2],1.44
same,"Substrate use, 590 nm absorbance normalized to zero hour, 5 hr",[2],2.79
same,"Substrate use, 590 nm absorbance normalized to zero hour, 7 hr",[2],3.14
same,"590 nm absorbance normalized to zero hour (substrate use), 1 hr",[3],1.44
same,"590 nm absorbance normalized to zero hour (substrate use), 2 hr",[3],1.90
same,"590 nm absorbance normalized to zero hour (substrate use), 3 hr",[3],2.18
same,"590 nm absorbance normalized to zero hour (substrate use), 4 hr",[3],2.37
same,"590 nm absorbance normalized to zero hour (substrate use), 6 hr",[3],2.96
same,"590 nm absorbance normalized to zero hour (substrate use), 8 hr",[3],3.24
same,"590 nm absorbance normalized to zero hour (substrate use), 9 hr",[3],3.62
same,"590 nm absorbance normalized to zero hour (substrate use), 10 hr",[3],3.66
same,"590 nm absorbance normalized to zero hour (substrate use), 11 hr",[3],3.99
O=C(O)C[C@@H](O)C(=O)O [D-Malic Acid],"590 nm absorbance normalized to zero hour (substrate use), 0 hr",[1],1.00
same,"590 nm absorbance normalized to zero hour (substrate use), 1 hr",[1],1.49
same,"590 nm absorbance normalized to zero hour (substrate use), 2 hr",[1],2.03
same,"590 nm absorbance normalized to zero hour (substrate use), 3 hr",[1],2.06
same,"590 nm absorbance normalized to zero hour (substrate use), 4 hr",[1],2.25
same,"590 nm absorbance normalized to zero hour (substrate use), 6 hr",[1],2.19
same,"590 nm absorbance normalized to zero hour (substrate use), 8 hr",[1],3.00
same,"590 nm absorbance normalized to zero hour (substrate use), 9 hr",[1],3.06
same,"590 nm absorbance normalized to zero hour (substrate use), 10 hr",[1],3.20
same,"590 nm absorbance normalized to zero hour (substrate use), 11 hr",[1],3.52
same,"Substrate use, 590 nm absorbance normalized to zero hour, 0 hr",[1],1.00
same,"Substrate use, 590 nm absorbance normalized to zero hour, 1 hr",[1],1.49
same,"Substrate use, 590 nm absorbance normalized to zero hour, 5 hr",[1],2.63
same,"Substrate use, 590 nm absorbance normalized to zero hour, 7 hr",[1],2.87
same,"590 nm absorbance normalized to zero hour (substrate use), 0 hr",[4],1.00
same,"590 nm absorbance normalized to zero hour (substrate use), 1 hr",[4],2.26
same,"590 nm absorbance normalized to zero hour (substrate use), 2 hr",[4],2.49
same,"590 nm absorbance normalized to zero hour (substrate use), 3 hr",[4],2.54
same,"590 nm absorbance normalized to zero hour (substrate use), 4 hr",[4],2.71
same,"590 nm absorbance normalized to zero hour (substrate use), 5 hr",[4],2.61
same,"590 nm absorbance normalized to zero hour (substrate use), 6 hr",[4],1.75
same,"590 nm absorbance normalized to zero hour (substrate use), 7 hr",[4],1.82
same,"590 nm absorbance normalized to zero hour (substrate use), 8 hr",[4],1.98
same,"590 nm absorbance normalized to zero hour (substrate use), 9 hr",[4],1.95
same,"590 nm absorbance normalized to zero hour (substrate use), 10 hr",[4],2.27
same,"590 nm absorbance normalized to zero hour (substrate use), 11 hr",[4],2.21
same,"590 nm absorbance normalized to zero hour (substrate use), 0 hr",[5],1.00
same,"590 nm absorbance normalized to zero hour (substrate use), 1 hr",[5],2.26
same,"590 nm absorbance normalized to zero hour (substrate use), 2 hr",[5],2.49
same,"590 nm absorbance normalized to zero hour (substrate use), 3 hr",[5],2.54
same,"590 nm absorbance normalized to zero hour (substrate use), 4 hr",[5],2.71
same,"590 nm absorbance normalized to zero hour (substrate use), 5 hr",[5],2.61
same,"590 nm absorbance normalized to zero hour (substrate use), 6 hr",[5],1.75
same,"590 nm absorbance normalized to zero hour (substrate use), 7 hr",[5],1.82
same,"590 nm absorbance normalized to zero hour (substrate use), 8 hr",[5],1.98
same,"590 nm absorbance normalized to zero hour (substrate use), 9 hr",[5],1.95
same,"590 nm absorbance normalized to zero hour (substrate use), 10 hr",[5],2.27
same,"590 nm absorbance normalized to zero hour (substrate use), 11 hr",[5],2.21
OC[C@@H](O)[C@@H](O)[C@H](O)[C@H](O)CO [D-Mannitol],"590 nm absorbance normalized to zero hour (substrate use), 1 hr",[1],0.96
same,"590 nm absorbance normalized to zero hour (substrate use), 2 hr",[1],0.94
same,"590 nm absorbance normalized to zero hour (substrate use), 3 hr",[1],1.00
same,"590 nm absorbance normalized to zero hour (substrate use), 4 hr",[1],0.99
same,"590 nm absorbance normalized to zero hour (substrate use), 6 hr",[1],0.34
same,"590 nm absorbance normalized to zero hour (substrate use), 8 hr",[1],0.74
same,"590 nm absorbance normalized to zero hour (substrate use), 9 hr",[1],0.79
same,"590 nm absorbance normalized to zero hour (substrate use), 10 hr",[1],0.74
same,"590 nm absorbance normalized to zero hour (substrate use), 11 hr",[1],0.64
same,"Substrate use, 590 nm absorbance normalized to zero hour, 1 hr",[1],0.96
same,"Substrate use, 590 nm absorbance normalized to zero hour, 5 hr",[1],0.91
same,"Substrate use, 590 nm absorbance normalized to zero hour, 7 hr",[1],0.81
same,"590 nm absorbance normalized to zero hour (substrate use), 1 hr",[3],0.20
same,"590 nm absorbance normalized to zero hour (substrate use), 2 hr",[3],0.27
same,"590 nm absorbance normalized to zero hour (substrate use), 3 hr",[3],0.32
same,"590 nm absorbance normalized to zero hour (substrate use), 4 hr",[3],0.34
same,"590 nm absorbance normalized to zero hour (substrate use), 5 hr",[3],0.40
same,"590 nm absorbance normalized to zero hour (substrate use), 6 hr",[3],0.42
same,"590 nm absorbance normalized to zero hour (substrate use), 7 hr",[3],0.44
same,"590 nm absorbance normalized to zero hour (substrate use), 8 hr",[3],0.47
same,"590 nm absorbance normalized to zero hour (substrate use), 9 hr",[3],0.52
same,"590 nm absorbance normalized to zero hour (substrate use), 10 hr",[3],0.53
same,"590 nm absorbance normalized to zero hour (substrate use), 11 hr",[3],0.57
same,"590 nm absorbance normalized to zero hour (substrate use), 1 hr",[5],0.20
same,"590 nm absorbance normalized to zero hour (substrate use), 2 hr",[5],0.27
same,"590 nm absorbance normalized to zero hour (substrate use), 3 hr",[5],0.32
same,"590 nm absorbance normalized to zero hour (substrate use), 4 hr",[5],0.34
same,"590 nm absorbance normalized to zero hour (substrate use), 5 hr",[5],0.40
same,"590 nm absorbance normalized to zero hour (substrate use), 6 hr",[5],0.42
same,"590 nm absorbance normalized to zero hour (substrate use), 7 hr",[5],0.44
same,"590 nm absorbance normalized to zero hour (substrate use), 8 hr",[5],0.47
same,"590 nm absorbance normalized to zero hour (substrate use), 9 hr",[5],0.52
same,"590 nm absorbance normalized to zero hour (substrate use), 10 hr",[5],0.53
same,"590 nm absorbance normalized to zero hour (substrate use), 11 hr",[5],0.57
OC[C@H]1OC(O)[C@@H](O)[C@@H](O)[C@@H]1O (stereo partly drawn) [D-Mannose],"590 nm absorbance normalized to zero hour (substrate use), 0 hr",[1],1.00
same,"590 nm absorbance normalized to zero hour (substrate use), 1 hr",[1],2.20
same,"590 nm absorbance normalized to zero hour (substrate use), 2 hr",[1],3.33
same,"590 nm absorbance normalized to zero hour (substrate use), 3 hr",[1],4.33
same,"590 nm absorbance normalized to zero hour (substrate use), 4 hr",[1],4.90
same,"590 nm absorbance normalized to zero hour (substrate use), 6 hr",[1],6.50
same,"590 nm absorbance normalized to zero hour (substrate use), 8 hr",[1],8.13
same,"590 nm absorbance normalized to zero hour (substrate use), 9 hr",[1],9.60
same,"590 nm absorbance normalized to zero hour (substrate use), 10 hr",[1],10.60
same,"590 nm absorbance normalized to zero hour (substrate use), 11 hr",[1],12.47
same,"Substrate use, 590 nm absorbance normalized to zero hour, 0 hr",[1],1.00
same,"Substrate use, 590 nm absorbance normalized to zero hour, 1 hr",[1],2.20
same,"Substrate use, 590 nm absorbance normalized to zero hour, 5 hr",[1],6.64
same,"Substrate use, 590 nm absorbance normalized to zero hour, 7 hr",[1],8.62
same,"590 nm absorbance normalized to zero hour (substrate use), 0 hr",[3],1.00
same,"590 nm absorbance normalized to zero hour (substrate use), 1 hr",[3],1.49
same,"590 nm absorbance normalized to zero hour (substrate use), 2 hr",[3],2.09
same,"590 nm absorbance normalized to zero hour (substrate use), 3 hr",[3],2.68
same,"590 nm absorbance normalized to zero hour (substrate use), 4 hr",[3],3.06
same,"590 nm absorbance normalized to zero hour (substrate use), 5 hr",[3],4.10
same,"590 nm absorbance normalized to zero hour (substrate use), 6 hr",[3],4.57
same,"590 nm absorbance normalized to zero hour (substrate use), 7 hr",[3],4.94
same,"590 nm absorbance normalized to zero hour (substrate use), 8 hr",[3],5.47
same,"590 nm absorbance normalized to zero hour (substrate use), 9 hr",[3],6.51
same,"590 nm absorbance normalized to zero hour (substrate use), 10 hr",[3],6.80
same,"590 nm absorbance normalized to zero hour (substrate use), 11 hr",[3],7.75
same,"590 nm absorbance normalized to zero hour (substrate use), 0 hr",[5],1.00
same,"590 nm absorbance normalized to zero hour (substrate use), 1 hr",[5],1.49
same,"590 nm absorbance normalized to zero hour (substrate use), 2 hr",[5],2.09
same,"590 nm absorbance normalized to zero hour (substrate use), 3 hr",[5],2.68
same,"590 nm absorbance normalized to zero hour (substrate use), 4 hr",[5],3.06
same,"590 nm absorbance normalized to zero hour (substrate use), 5 hr",[5],4.10
same,"590 nm absorbance normalized to zero hour (substrate use), 6 hr",[5],4.57
same,"590 nm absorbance normalized to zero hour (substrate use), 7 hr",[5],4.94
same,"590 nm absorbance normalized to zero hour (substrate use), 8 hr",[5],5.47
same,"590 nm absorbance normalized to zero hour (substrate use), 9 hr",[5],6.51
same,"590 nm absorbance normalized to zero hour (substrate use), 10 hr",[5],6.80
same,"590 nm absorbance normalized to zero hour (substrate use), 11 hr",[5],7.75
